What is called IC50 is the concentration that gives 50% inhibition. A higher IC50 goes with a need for much substance.

The target of test [1] is T1, CB1-Receptor (Homo sapiens, UniProt P21554).
T1 construct: purchased Receptor Biology, Inc
The test is described as follows: In-vitro determination of affinity to CB1 receptor (radioligand binding). The following applies: Radiologand:[^3H]-CP55940, transfected human CB1 receptors. The method, then: I. In-vitro determination of affinity to CB1/CB2-Receptors
The in-vitro determination of the affinity of the inventive quaternary ammonium salts of substituted pyrazoline compounds to CB1/CB2-Rezeptors is carried out as described in the publication of Ruth A. Ross, Heather C. Brockie et al., "Agonist-inverse agonist characterization at CB1 and CB2 cannabinoid receptors of L-759633, L759656 and AM630", British Journal of Pharmacology, 126, 665-672, (1999), whereby the transfected human CB1 and CB2 receptors of Receptor Biology, Inc. are used. The radioligand used for both receptors is [3H]-CP55940. The respective parts of the description are hereby incorporated by reference and forms part of the present disclosure.
The affinity of the inventive substituted pyrazoline compounds to CB1/CB2 receptors was determined as described above.

Test [2] concerns cannabinoid receptors. The experiment in a line: Mouse tetrad model, antagonistic activity against Win 55212-2. It is filed as in vivo. As to conditions: Male NMRI mice; substance injected intravenously 5 minutes before intravenous 1.25 mg/kg Win-55,212; tetrad parameter not specified. The source says:
II. In-vivo bioassay system for determination of cannabinoid activity
Substances with affinity for cannabinoid receptors are known to produce a wide range of pharmacological effects. It is also known that intravenous administration of a substance with affinity for cannabinoid receptors in mice produces analgesia , hypothermia, sedation and catalepsy. Individually, none of these effects can be considered as proof that a tested substance has affinity for cannabinoid-receptors, since all of these effects are common for various classes of centrally active agents. However, substances, which show all of these effects, i.e. substances that are active in this so-called tetrad model are considered to have affinity for the cannabinoid receptors. It has further been shown that cannabinoid receptor antagonists are higly effective in blocking the effects of a cannabinoid agonist in the mouse tetrad model.
The tetrad model is described, for example, in the publication of A. C. Howlett et al, International Union of Pharmacology XXVII. […]
Before testing in the behavioral procedures given below, mice are acclimatized to the experimental setting. Pre-Treatment control values are determined for analgesia hot plate latency (in seconds), rectal temperature, sedation and catalepsy.
In order to determine the agonistic activty of the substance to be tested, the mice are injected intravenously with the substance to be tested or the vehicle alone. 15 minutes after injection, latency in hot plate analgesia is measured. Rectal temperature, sedation and catalepsy are measured 20 minutes after injection.
In order to determine the antagonistic activity the identical procedure is used as for the determination of the agonistic effects, but with the difference that the substance to be evaluated for its antagonistic activity is injectected 5 minutes before the intravenous injection of 1.25 mg/kg Win-55,212 a known cannabinoid-receptor agonist. […]
The degree of analgesia is calculated from the formula: %MPE of Analgesia = (PT-B)/(PC-B) × 100 [formula] […]

T1 sequence (P21554 whole entry): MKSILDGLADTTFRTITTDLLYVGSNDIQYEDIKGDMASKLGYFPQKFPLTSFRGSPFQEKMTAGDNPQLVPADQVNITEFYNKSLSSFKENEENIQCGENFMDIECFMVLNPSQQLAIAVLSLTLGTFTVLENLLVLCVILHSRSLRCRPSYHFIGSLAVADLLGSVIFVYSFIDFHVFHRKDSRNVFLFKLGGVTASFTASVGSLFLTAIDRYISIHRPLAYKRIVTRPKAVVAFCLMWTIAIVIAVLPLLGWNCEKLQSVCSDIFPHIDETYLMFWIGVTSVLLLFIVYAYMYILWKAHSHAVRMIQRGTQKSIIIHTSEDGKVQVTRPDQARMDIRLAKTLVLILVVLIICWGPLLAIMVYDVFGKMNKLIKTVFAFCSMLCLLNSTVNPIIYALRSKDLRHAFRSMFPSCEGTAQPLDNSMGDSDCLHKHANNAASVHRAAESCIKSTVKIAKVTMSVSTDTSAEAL

As to `O=C(NC1CCCCCC1)C1=NN(c2ccc(Cl)cc2Cl)C(c2ccc(Cl)cc2)C1` (stereo not drawn) [Example 1, 5-(4-chlorophenyl)-N-cycloheptyl-1-(2,4-dichlorophenyl)-4,5-dihydro-1H-pyrazole-3-carboxamide], in test [1], the IC50 was determined as 100 nM. The “Antagonistic Effect in (%)” value in test [2] was 84%.

Consider `O=C(NC1CCCCCC1)C1=NN(c2ccc(Cl)cc2Cl)[C@@H](c2ccc(Cl)cc2)C1` [Example 2, (R)-5-(4-chlorophenyl)-N-cycloheptyl-1-(2,4-dichlorophenyl)-4,5-dihydro-1H-pyrazole-3-carboxamide], for which the half-inhibitory concentration (IC50) in test [1] was found to be 15.8 nM. Moreover, in test [2], the “Antagonistic Effect in (%)” value is 94%.

The compound `O=C(NC1CCCCCCC1)C1=NN(c2ccc(Cl)cc2Cl)C(c2ccc(Cl)cc2)C1` (stereo not drawn) [Example 5, 5-(4-chlorophenyl)-N-cyclooctyl-1-(2,4-dichlorophenyl)-4,5-dihydro-1H-pyrazole-3-carboxamide] had an IC50 in test [1] of 56.2 nM. Besides, in test [2], the “Antagonistic Effect in (%)” value was 62±5%.

Source of the values: patent publication EP1849775A1, “Cycloalkane-substituted pyrazoline compounds, their preparation and use as medicaments” (LABORATORIOS DEL DR. ESTEVE, S.A., priority 2006, dated 2007).
